Experimental data published in US20090093551A1, “REMOTELY TRIGGERED RELEASE FROM HEATABLE SURFACES” (priority 2006, published 2009).

Legend:
[1] = In vitro EM field-triggered release of fluorescent DNA from nanoparticles embedded in hydrogel (matrigel) plugs; conditions: hydrogel plug; for release on higher power EM field: higher power 3 kW
[2] = mouse, in vivo
Procedure: Phenol red free, growth factor reduced matrigel (400 μl, BD Biosciences) was added to 100 μl of particles. To obtain 1.05% total concentration of particles, 75 μl of DNA-conjugated particles (approximately 3.3 mg/ml) were added to 25 μl of similar 50 nm particles (200 mg/ml, Chemicell). Gels (total volume 500 μl) were mixed at 4° C. to prevent gelation.
Prior to injection of matrigel plugs into mice, approval from the Burnham Institute Animal Use Committee was obtained (AUF 05-054). In these experiments, 500 μl volumes were injected subcutaneous near the posterior mammary fat pad of six athymic nude mice and allowed to gel for 45 minutes. Prior to injection, animals were anesthetized with Avertin® (tribromoethanol) and remained under anesthesia during the remainder of the experiment. Three animals were treated with EM fields for two 5 minute doses, with 15 minutes between field applications (+EMF), while three were not treated (−EMF). […] To quantify penetration depth, 8 images of the tissue/phantom boundary were taken for each animal (3 animals per group, 24 images total). […] Using Metamorph software (Universal Imaging), green fluorescence on the tissue side of the boundary was quantified. For each fluorescent “object,” the area and distance from the tissue boundary was measured. An area-weighted average distance was calculated. […]

| Substance | release on higher power EM field [1] | release on low power EM field pulses ([1]; low power EM field pulses 0.55 kW) | release of fluorescein into surrounding buffer on repeated EM field pulses ([1]; EM field pulses 400 kHz, 1.25 kW, 5 minutes every 40 minutes) | increase of the average distance of fluorescence signal, EM field treated over unexposed controls [2] |
| --- | --- | --- | --- | --- |
| 5′-CGCTGATTCAAGCCGACTAACCGC-3′ (DNA CGCTGATTCAAGCCGACTAACCGC; DNA, backbone and methylation of C not given here; fluorescent dye at 5' end, dye not named) [24 bp, HEX, 5′ HEX-labeled 24 bp complement DNA hybridized to 30 bp parent DNA on magnetite nanoparticles] | simultaneous release of both species |  |  |  |
| 5′-TCG CTG ATT CAA-3′ (DNA TCGCTGATTCAA; DNA, backbone and methylation of C not given here; fluorescent dye at 5' end, dye not named) [12 bp, FAM, 5′ FAM-labeled 12 bp complement DNA hybridized to 30 bp parent DNA on magnetite nanoparticles] | simultaneous release of both species | triggered release predominantly of FAM |  |  |
| 5′-TGA TTC AAG CCG ACT AAC-3′ (DNA TGATTCAAGCCGACTAAC; 5' fluorescein label, further chemistry not given here) |  |  | corresponding release of fluorescein | approximately six-fold |
